Results: patent US20050244360A1, “Cosmetic composition for greasy skin care, containing a carboxylic fatty acid or a derivative thereof” (L'OREAL, priority 2003, published 2005)

Experiments:
cutaneous micrococcaceae = conditions: topical gel containing 20% azelaic acid, male subjects with clinical acne; cited from earlier work
Propionibacterium sp = conditions: topical gel containing 20% azelaic acid, male subjects with clinical acne; cited from earlier work
[1] = system: sebocytes from an immortalized human line; assay: Reduction of lipogenesis: lipids produced by immortalized human sebocytes, RED NILE dye fluorescence; type: cell-based; conditions: for QUANTITY OF LIPIDS MEASURED / REDUCTION IN LIPOGENESIS/CONTROL: 2 days of treatment; for QUANTITY OF LIPIDS MEASURED: control = 100; for REDUCTION IN LIPOGENESIS/CONTROL: vs culture medium control
Description: The test which was developed consisted of measuring, after 2 days of treatment, the quantity of lipids produced by sebocytes from an immortalized human line (in the presence or absence of active agents). The fluorescence emitted by RED NILE dye was measured at two distinct wavelengths to quantify the amount of characteristic neutral lipids of the sebum. Glucocorticoids are known to reduce the production of sebum in non […] subjects (Leveque, J. L. et al., (1991)). Thus, cortisol was selected as a reference, while the culture medium alone was selected as the control (no supplemental excipient was added either to the cortisol or to the azelaic acid, these latter being dissolved in the culture medium under the test conditions). […] Its activity was moderate compared with the pharmaceutical reference. Nevertheless, it should have a significant cosmetic action in a suitable formulation, if necessary by making repeated applications.

SZ 95 sebocytes = assay: Tolerability: cytotoxicity by production of LDH in the culture medium; type: cell-based, human; conditions: 1 μM
Description: The tolerability of azelaic acid was measured by measuring the cytotoxicty of the product using SZ 95 sebocytes (Zouboulis, Seltmann et al., 1999). The test conditions were the same as those given in Example 1. The cytotoxicity was measured by the production of LDH in the culture medium.

excreted sebum = conditions: doses used to treat acne (SKINOREN); subjects with acne, seborrheic skin without acne, normoseborrheic; cited from earlier work
sebum production = conditions: cited from earlier work
human keratinocytes = conditions: concentrations of the order of 1 mM; cited from earlier work
sebum excretion = conditions: topical 20% azelaic acid gel, individuals with physiological acne; cited from earlier work

| SMILES | reduction of the number of cutaneous micrococcaceae, factor (cutaneous micrococcaceae) | reduction of the number of Propionibacterium sp, factor (Propionibacterium sp) | effect on sebum production by sebocytes (in words) ([1]; 1 μM) | QUANTITY OF LIPIDS MEASURED ([1]; 1 μM) | REDUCTION IN LIPOGENESIS/CONTROL ([1]; 1 μM) | reduction in lipid secretion ([1]; 1 μM, model immortalized culture of human sebocytes) | activity compared with the pharmaceutical reference (cortisol) ([1]; azelaic acid 1 μM vs cortisol 0.1 μM) | sebocyte survival (in words) (SZ 95 sebocytes) | LDH VARIATION/CONTROL (SZ 95 sebocytes; same conditions as Example 1) | effect on quantity and composition of the excreted sebum (in words) (excreted sebum) | ability to reduce sebum production (in words) (sebum production) | effect on proliferation of human keratinocytes (in words) (human keratinocytes) | effect on sebum excretion (in words) (sebum excretion) | QUANTITY OF LIPIDS MEASURED ([1]; 0.1 μM) | REDUCTION IN LIPOGENESIS/CONTROL ([1]; 0.1 μM) |
| --- | --- | --- | --- | --- | --- | --- | --- | --- | --- | --- | --- | --- | --- | --- | --- |
| O=C(O)CCCCCCCC(=O)O [Azelaic acid, azelaic acid] | 224 | 30 | inhibits sebum production | 93 | −7% | 7% | moderate | improves sebocyte survival | −20% | did not modify either the quantity or the composition of the excreted sebum | inability of azelaic acid to reduce sebum production | reduces the proliferation of human keratinocytes | did not cause a significant modification in sebum excretion |  |  |
| C[C@]12CCC(=O)C=C1CC[C@@H]1[C@@H]2[C@@H](O)C[C@@]2(C)[C@H]1CC[C@]2(O)C(=O)CO [Cortisol] |  |  |  |  |  |  |  |  |  |  |  |  |  | 71 | −29% |
